Results: paper PMC5323493, “Synthesis and pre-clinical evaluation of a new class of high-affinity ^18F-labeled PSMA ligands for detection of prostate cancer by PET imaging” (European Journal of Nuclear Medicine and Molecular Imaging, 2016)
pIC50: −log10 of the molar value. Read-outs that look alike come from different tables or passages of the source. Marks after values point to notes of the source that are not given here.

Tests used:
LNCaP xenograft tumor [1] = experiment: μPET/CT imaging of LNCaP xenograft tumor-bearing mice; format: in vivo; conditions: for Max. LNCaP Tumor Uptake Time p.i.: image derived; for Max. LNCaP Tumor Uptake: image derived calculation (ROI), at time of maximum uptake; for route of clearance: from μPET/CT images
From the text: (§1) All animal studies were approved by the Institutional Animal Care and Use Committee of Weill Cornell Medicine and were undertaken in accordance with the guidelines set forth by the USPHS Policy on Humane Care and Use of Laboratory Animals. Animals were housed under standard conditions in approved facilities with 12-h light/dark cycles. Food and water was provided ad libitum throughout the course of the studies. Male inbred athymic nu/nu mice were purchased from The Jackson Laboratory. For inoculation in mice, LNCaP cells were suspended at 4 x 10^7 cells/mL in a 1:1 mixture of PBS:Matrigel (BD Biosciences). Each mouse was injected in the left flank with 0.25 mL of the cell suspension. The mice were imaged when the tumors reached approximately 200–400 mm^3, while biodistributions were conducted when tumors were in the range 100–400 mm^3.
Specific activity was greater than 190 GBq/μmol. The mice were imaged by μPET/CT (Inveon™; Siemens Medical Solutions, Inc.) at 1 h, 2 h, 4 h and 6 h p.i. ([^18F]fluorinated compounds) or 1 h and 3 h p.i. ([^68Ga]Ga-PSMA-HBED-CC). Total acquisition time was thirty minutes, and a CT scan was obtained either immediately before or immediately after the acquisition for both anatomical co-registration and attenuation correction. The data were reconstructed using the commercial Inveon™ software supplied by the vendor. Tumor uptake was estimated by drawing a region of interest (ROI).

LNCaP xenograft tumor [2] = conditions: cited from earlier work
PSMA = target: T1, PSMA (Homo sapiens, UniProt Q04609); experiment: competitive binding assay against 99mTc-MIP-1427 on LNCaP cells; conditions: non-radioactive ligands, 1 nM 99mTc-MIP-1427, 1 h
T1 construct: host or cells: LNCaP
Experimental: The human prostate cancer cell line, LNCaP, was obtained from the American Type Culture Collection. Cell culture supplies were from Invitrogen unless otherwise noted. LNCaP cells were maintained in RPMI-1640 medium supplemented with 10 % fetal bovine serum (Hyclone), 4 mM L-glutamine, 1 mM sodium pyruvate, 10 mM N-2-hydroxyethylpiperazine-N-2-ethanesulfonic acid (HEPES), 2.5 mg/mL D-glucose, and 50 μg/mL gentamicin in a humidified incubator at 37 °C/5 % CO2. Cells were removed from flasks for passage or for transfer to 12-well assay plates by incubating them with 0.25 % trypsin/ethylenediaminetetraacetic acid (EDTA).
The 50 % inhibition concentrations (IC50 ) values of the non-radioactive fluorine-containing ligands were determined by screening in a multi-concentration competitive binding assay against ^99mTc- ((7S,12S,16S)-1-(1-(carboxymethyl)-1H-imidazol-2-yl)-2-((1-(carboxymethyl)-1H-imidazol-2-yl)methyl)-9,14-dioxo-2,8,13,15-tetraazaoctadecane-7,12,16,18-tetracarboxylic acid technetium tricarbonyl complex; ^99mTc-MIP-1427) for binding to PSMA on LNCaP cells, according to methods previously described. The LNCaP cells were plated 48 hours prior to the experiment to achieve a density of approximately 5 x 10^5 cells/well (in triplicate) in RPMI-1640 medium supplemented with 0.25 % bovine serum albumin prior to performing the assay. LNCaP cells were incubated for 1 hour with 1 nM ^99mTc-MIP-1427 in serum-free RPMI-1640 medium in the presence of 1–10,000 nM test compounds. Radioactive incubation media was then removed by pipette and the cells were washed twice using 1 mL of ice-cold HEPES buffer. Cells were harvested from the plates and transferred to tubes for radioactive counting using a Packard Cobra II gamma counter. IC50 values were determined by non-linear regression using GraphPad Prism software.

LNCaP xenograft tumor [3] = experiment: ex vivo biodistribution in LNCaP xenograft tumor-bearing mice; conditions: for tumor uptake / Max. LNCaP Tumor Uptake: n = 5; for tumor uptake relative to [68Ga]Ga-PSMA-HBED-CC: at the time of maximum tumor uptake; for Max. LNCaP Tumor Uptake Time p.i. / Max. LNCaP Tumor Uptake: biodistribution
From the text: as §1
LNCaP xenograft tumor-bearing mice (n = 5 per time point) were injected via the tail vein with a bolus injection of 370 kBq (10 μCi) of either [^18F]RPS-040 or [^18F]RPS-041. The specific activity of the compounds was 341 GBq/μmol and 391 GBq/μmol, respectively. The mice were euthanized by asphyxiation under isofluorane at 1 h, 2 h and 4 h p.i. An additional set of mice (n = 5) was co-administered [^18F]RPS-040 (370 kBq; 10 μCi) and 2-PMPA (approx. 250 μg; 10 mg/kg) and sacrificed at 1 h p.i. to determine the uptake specificity. A full biodistribution study was conducted on all mice, and tissues were excised, weighed and counted in an automated γ-counter. Tissue time-activity values were expressed as percentage injected dose per gram of tissue (%ID/g). Statistical comparisons were performed using the standard Student’s t test for a 95 % confidence interval.

[4] = 1 h p.i., co-administered with 2-PMPA

T1 sequence (Q04609 whole entry): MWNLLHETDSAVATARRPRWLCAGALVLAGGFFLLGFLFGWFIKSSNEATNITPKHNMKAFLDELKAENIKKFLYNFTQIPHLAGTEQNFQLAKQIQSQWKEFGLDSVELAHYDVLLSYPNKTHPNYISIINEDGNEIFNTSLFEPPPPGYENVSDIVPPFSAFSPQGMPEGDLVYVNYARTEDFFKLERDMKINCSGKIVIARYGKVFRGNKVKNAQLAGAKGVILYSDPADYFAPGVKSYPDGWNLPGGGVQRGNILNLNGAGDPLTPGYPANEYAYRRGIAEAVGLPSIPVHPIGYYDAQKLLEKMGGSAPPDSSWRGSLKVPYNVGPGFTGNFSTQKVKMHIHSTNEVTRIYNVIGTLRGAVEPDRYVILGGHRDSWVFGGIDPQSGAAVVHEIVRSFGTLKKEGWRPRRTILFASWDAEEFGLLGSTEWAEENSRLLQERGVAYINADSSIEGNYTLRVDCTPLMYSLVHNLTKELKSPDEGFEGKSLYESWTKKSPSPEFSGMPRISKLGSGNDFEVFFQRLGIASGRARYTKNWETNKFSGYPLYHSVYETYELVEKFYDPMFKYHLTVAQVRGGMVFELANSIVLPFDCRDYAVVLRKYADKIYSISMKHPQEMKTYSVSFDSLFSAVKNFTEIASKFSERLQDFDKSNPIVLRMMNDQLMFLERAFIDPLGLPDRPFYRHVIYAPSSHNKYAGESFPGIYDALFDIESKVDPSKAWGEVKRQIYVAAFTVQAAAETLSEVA

O=C(O)CCC(NC(=O)NC(CCCCNC(=O)c1ccc([18F])nc1)C(=O)O)C(=O)O (centres unmarked) [DCFPyL, 2-(3-{1-carboxy-5-[(6-[18F]fluoro-pyridine-3-carbonyl)-amino]-pentyl}-ureido)-pentanedioic acid, reference compound]
Max. LNCaP Tumor Uptake Time p.i. (LNCaP xenograft tumor [1]): 1 h | Max. LNCaP Tumor Uptake (LNCaP xenograft tumor [1]): 5.71 ± 0.61^c %ID/g | maximum standardized uptake value (SUVmax) (LNCaP xenograft tumor [2]; LNCaP tumor xenografts, 1 h p.i.): 1.1 ± 0.1

O=C(O)CC[C@H](NC(=O)N[C@@H](CCCCNC(=O)Nc1ccc(I)cc1)C(=O)O)C(=O)O [MIP-1095]
pIC50 (PSMA): 9.52 | Max. LNCaP Tumor Uptake (LNCaP xenograft tumor [2]): 34.3 ± 12.7^a %ID/g | Max. LNCaP Tumor Uptake Time p.i. (LNCaP xenograft tumor [2]): 4 h

O=C(O)CC[C@H](NC(=O)N[C@@H](CCCCNC(=O)Nc1ccc(OCc2cn(CCF)nn2)cc1)C(=O)O)C(=O)O [RPS-038]
pIC50 (PSMA): 7.67 | Max. LNCaP Tumor Uptake Time p.i. (LNCaP xenograft tumor [1]): 2 h | Max. LNCaP Tumor Uptake (LNCaP xenograft tumor [1]): 8.87 ± 0.64^c %ID/g

O=C(O)CC[C@H](NC(=O)N[C@@H](CCCCNC(=O)Nc1ccccc1OCc1cn(CCF)nn1)C(=O)O)C(=O)O [RPS-039]
pIC50 (PSMA): 7.85 | route of clearance (LNCaP xenograft tumor [1]): clearance via the hepatobiliary pathway in addition to renal excretion | Max. LNCaP Tumor Uptake Time p.i. (LNCaP xenograft tumor [1]): 2 h | Max. LNCaP Tumor Uptake (LNCaP xenograft tumor [1]): 5.89 ± 0.27^c %ID/g

O=C(O)CC[C@H](NC(=O)N[C@@H](CCCCNC(=O)Nc1cccc(-c2cn(CCF)nn2)c1)C(=O)O)C(=O)O [RPS-040]
tumor-to-blood ratio (LNCaP xenograft tumor [3]; 1 h p.i.): 28.8 ± 8.06 | tumor-to-blood ratio relative to [68Ga]Ga-PSMA-HBED-CC (LNCaP xenograft tumor [3]; 1 h p.i.): three-fold greater | tumor-to-kidney ratio relative to [68Ga]Ga-PSMA-HBED-CC (LNCaP xenograft tumor [3]; 1 h p.i.): ten | kidneys uptake (LNCaP xenograft tumor [3]; [4]): 5.95 ± 1.65 %ID/g | spleen uptake (LNCaP xenograft tumor [3]; [4]): 0.32 ± 0.05 %ID/g | tumor uptake (LNCaP xenograft tumor [3]; 1 h p.i., co-administered with 2-PMPA (10 mg/kg)): 1.75 ± 0.15 %ID/g | kidneys uptake (LNCaP xenograft tumor [3]; 1 h p.i., unblocked): 74.24 ± 10.71 %ID/g | spleen uptake (LNCaP xenograft tumor [3]; 1 h p.i., unblocked): 4.97 ± 1.55 %ID/g | tumor uptake (LNCaP xenograft tumor [3]; 1 h p.i., unblocked): 12.69 ± 1.56 %ID/g | uptake in the kidneys (LNCaP xenograft tumor [3]; 2 h p.i.): 60.94 ± 8.06 %ID/g | uptake in the liver (LNCaP xenograft tumor [3]; 2 h p.i.): 4.72 ± 0.93 %ID/g | uptake in the spleen (LNCaP xenograft tumor [3]; 2 h p.i.): 3.23 ± 1.26 %ID/g | tumor-to-blood ratio (LNCaP xenograft tumor [3]; 4 h p.i.): 92.93 ± 75.67 | tumor uptake relative to [68Ga]Ga-PSMA-HBED-CC (LNCaP xenograft tumor [3]): more than two-fold greater | Max. LNCaP Tumor Uptake Time p.i. (LNCaP xenograft tumor [3]): 2 h | Max. LNCaP Tumor Uptake (LNCaP xenograft tumor [3]; 2 h p.i.): 14.30 ± 2.49 %ID/g | Max. LNCaP Tumor Uptake (LNCaP xenograft tumor [3]; 2 h p.i., listed as [^18F]RPS-040): > 10 %ID/g | pIC50 (PSMA): 8.15 | Max. LNCaP Tumor Uptake (LNCaP xenograft tumor [1]): 14.30 %ID/g

O=C(O)CC[C@H](NC(=O)N[C@@H](CCCCNC(=O)Nc1ccc(-c2cn(CCF)nn2)cc1)C(=O)O)C(=O)O [RPS-041]
tumor-to-blood ratio (LNCaP xenograft tumor [3]; 1 h p.i.): 20.78 ± 7.87 | tumor-to-blood ratio relative to [68Ga]Ga-PSMA-HBED-CC (LNCaP xenograft tumor [3]; 1 h p.i.): more than two-fold | tumor-to-kidney ratio relative to [68Ga]Ga-PSMA-HBED-CC (LNCaP xenograft tumor [3]; 1 h p.i.): twelve-fold greater | contrast (tumor-to-background) relative to [18F]RPS-040 (LNCaP xenograft tumor [3]; 2 h p.i.): two-fold greater | uptake in the kidneys (LNCaP xenograft tumor [3]; 2 h p.i.): 23.93 ± 5.45 %ID/g | uptake in the liver (LNCaP xenograft tumor [3]; 2 h p.i.): 2.51 ± 0.21 %ID/g | uptake in the spleen (LNCaP xenograft tumor [3]; 2 h p.i.): 1.13 ± 0.47 %ID/g | tumor-to-blood ratio (LNCaP xenograft tumor [3]; 4 h p.i.): 118.4 ± 69.4 | tumor uptake relative to [68Ga]Ga-PSMA-HBED-CC (LNCaP xenograft tumor [3]): nearly two-fold greater | Max. LNCaP Tumor Uptake Time p.i. (LNCaP xenograft tumor [3]): 2 h | Max. LNCaP Tumor Uptake (LNCaP xenograft tumor [3]; 2 h p.i.): 10.86 ± 1.03 %ID/g | Max. LNCaP Tumor Uptake (LNCaP xenograft tumor [3]; 2 h p.i., listed as [^18F]RPS-041): > 10 %ID/g | pIC50 (PSMA): 8.49 | Max. LNCaP Tumor Uptake (LNCaP xenograft tumor [1]): 12.51 %ID/g

O=C(O)CC[C@H](NC(=O)N[C@@H](CCCCNC(=O)Nc1ccccc1-c1cn(CCF)nn1)C(=O)O)C(=O)O [RPS-042]
pIC50 (PSMA): 7.99 | route of clearance (LNCaP xenograft tumor [1]): clearance via the hepatobiliary pathway in addition to renal excretion | Max. LNCaP Tumor Uptake Time p.i. (LNCaP xenograft tumor [1]): 2 h | Max. LNCaP Tumor Uptake (LNCaP xenograft tumor [1]): 10.06 ± 1.33^c %ID/g

O=C(O)CC[C@H](NC(=O)N[C@@H](CCCCNC(=O)Nc1cccc(OCc2cn(CCF)nn2)c1)C(=O)O)C(=O)O [RPS-043]
pIC50 (PSMA): 7.44 | Max. LNCaP Tumor Uptake Time p.i. (LNCaP xenograft tumor [1]): 2 h | Max. LNCaP Tumor Uptake (LNCaP xenograft tumor [1]): 9.04 ± 1.88^c %ID/g
